Assay results reported in patent publication US20180179574A1, “SYSTEMS AND METHODS FOR CHARACTERIZATION OF […]” (The University of Chicago, priority 2015, published 2018).

Tests used:
HepG2 = assay: Lipase assay with live cells (HepG2), fluorogenic TG substrate; format: cell-based; settings: HepG2 cells washed with heparin
Procedure: FIG. 2. The lipase assay is non-toxic and detects enzyme activity with live cells. The removal of the reaction mix from the cells (HepG2) stops substrate hydrolysis but is reinitiated once added back to the same cells (A).
Experiments were conducted during development of embodiments of the present invention using an in vitro assay that utilizes bovine milk LpL (SIGMA) diluted to ˜120 ng/ml in Tris-HCl, 0.15M NaCl (TBS), 1%(w/v) BSA, 0.015%(w/v) Zwittergent 3-14, pH 7.8+1 μM to 25 μM ENZCHEK substrate, prepared in black polypropylene microplates. In some embodiments, the lipase reaction is performed at room temperature or 37° C. for 10 min to 60 min. Detection of product is performed with a fluorescent plate reader using excitation/emission wavelengths of 482 nm and 515 nm. The assay is sensitive to fmol/L of LpL (130% gain on reader) (FIG. 6C) and product accumulation increases linearly with increasing enzyme concentrations (FIG. 1A). The absolute product concentration is proportional to the relative fluorescence units (RFU) and can be calculated using BODIPY-C12 fatty acid (D3823, Life Technologies Inc.) as a standard and allows the determination of reaction rates (i.e. ng/ml/min) and Michaelis-Menten kinetic parameters. […] Furthermore, the mild nature of the assay formulation allows LpL activity to be determined with live cells in cell culture or isolated cells (FIG. 2).

Leukocyte-LpL = biological target: T1, Leukocyte-LpL (Homo sapiens, UniProt P06858); assay: Leukocyte LpL hydrolytic potential / lipase response to stimulation assay (fluorogenic ENZCHEK TG substrate); format: cell-based; settings: leukocytes washed with heparin removing surface LpL
T1 construct: analyze the activity of endogenous cell-associated LpL from a blood sample; host or cells: primary leukocytes (buffy coat) from fresh whole blood
T1 sequence (P06858 28-475): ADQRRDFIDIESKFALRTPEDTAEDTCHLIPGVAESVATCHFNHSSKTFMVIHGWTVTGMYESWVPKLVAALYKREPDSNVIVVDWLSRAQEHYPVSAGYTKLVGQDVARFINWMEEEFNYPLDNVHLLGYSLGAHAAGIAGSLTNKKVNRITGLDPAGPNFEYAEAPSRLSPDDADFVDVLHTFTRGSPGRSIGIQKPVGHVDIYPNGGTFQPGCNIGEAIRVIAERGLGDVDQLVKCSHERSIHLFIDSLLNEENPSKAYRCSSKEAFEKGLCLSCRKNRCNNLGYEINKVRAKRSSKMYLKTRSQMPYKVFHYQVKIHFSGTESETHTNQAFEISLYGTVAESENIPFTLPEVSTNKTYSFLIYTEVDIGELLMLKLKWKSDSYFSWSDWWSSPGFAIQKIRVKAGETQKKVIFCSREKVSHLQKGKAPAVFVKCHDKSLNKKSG
Procedure: FIG. 6. Leukocyte-LpL activity is detectible and responsive to C-II51-79 and AV199-232 peptide stimulation. Leukocytes (buffy coat) was collected by centrifugation of fresh whole blood from healthy donors (Zen Bio Inc.), rinsed and then incubated with LpL reaction mix (A, B). Leukocytes were also incubated with […] CII51-79 and/or AV199-232 (A). […] Increasing fluorescent plate reader gain can increase sensitivity to low femto molar range (C).
Experiments were conducted during development of embodiments of the present invention using an in vitro assay that utilizes bovine milk LpL (SIGMA) diluted to ˜120 ng/ml in Tris-HCl, 0.15M NaCl (TBS), 1%(w/v) BSA, 0.015%(w/v) Zwittergent 3-14, pH 7.8+1 μM to 25 μM ENZCHEK substrate, prepared in black polypropylene microplates. […] Detection of product is performed with a fluorescent plate reader using excitation/emission wavelengths of 482 nm and 515 nm. The assay is sensitive to fmol/L of LpL (130% gain on reader) (FIG. 6C) and product accumulation increases linearly with increasing enzyme concentrations (FIG. 1A). The absolute product concentration is proportional to the relative fluorescence units (RFU) and can be calculated using BODIPY-C12 fatty acid (D3823, Life Technologies Inc.) as a standard and allows the determination of reaction rates (i.e. ng/ml/min) and Michaelis-Menten kinetic parameters. […]

With heparin the “Substrate hydrolysis by live cells after washing cells with heparin” value (HepG2) was “inhibits substrate hydrolysis” and the “Leukocyte substrate hydrolysis after washing cells with heparin” value (Leukocyte-LpL) was “substrate hydrolysis was lost”.
